Results: patent publication US20210401918A1, “COMPOSITION COMPRISING COMBINATION OF RED CLOVER EXTRACT AND HOPS EXTRACT FOR IMPROVEMENT OF MENOPAUSAL DISORDER” (NATURETECH CO. LTD., priority 2018, published 2021)

Tested on: MCF-7 cells
Experiment: MCF-7 cells proliferation assay (MTS)
Format: cell-based, human
Description: MCF-7 cells (human breast cancer cells) were obtained from the Korea Cell Line Bank and used. RPMI (Gibco, USA) medium containing 10% FBS (Gibco, USA) and 1% penicillin-streptomycin (Gibco, USA) was used as cell culture medium, and cells were cultured in 5% CO2, 37° C. incubator. The medium was replaced every two days, and cells were sub-cultured every 4-5 days. HUVECs (human umbilical vein endothelial cells) were obtained from LONZA and used. M200 (Gibco, USA) containing LSGS kit (Gibco, USA) was used as cell culture medium, and only cells at passage 3-5 were used for the experiment.
Estrogen-free medium, which was prepared by diluting phenol red-free RPMI (Gibco, USA) with 5% dextran-coated charcoal-stripped FBS (TCB, USA) and 1% penicillin-streptomycin, was used for the experiment. After reacting cells in the estrogen-free medium for 3 days, they were seeded in a 96-well plate at a concentration of 1.5×10^4 cells/well and incubated in 5% CO2, 37° C. incubator for 24 hours, and then were treated with the sample so that the final DMSO concentration was 0.1%. E2 was used as the positive control, and ICI 182,780 (Sigma Chem. Co., USA) was used as the negative control. After 72 hours of sample treatment, MTS analysis was performed using CellTiter 96®Aqueous One Solution (Promega, Germany) reagent. Each well was treated with 20 μl of MTS reagent, reacted in 5% CO2, 37° C. incubator for 3 hours, and the absorbance was measured at 490 nm using a microplate reader.
In order to ascertain whether each sample acts on the estrogen receptor to show a cell proliferation effect, the sample was treated together with the estrogen receptor inhibit ICI 182,780, and the results are shown in Table 9.

| Structure (SMILES) | Proliferation (%) (Table 8, 1 nM, 72 hours, Control = 100) | Proliferation (%) with ICI 182,780 (Table 9, 1 nM, together with ICI 182,780) [%] | Proliferation (%) without ICI 182,780 (Table 9, 1 nM, without ICI 182,780) [%] | Proliferation (%) with ICI 182,780 (Table 9, Control (sample 0 μg/ml) with ICI 182,780 alone) [%] |
| --- | --- | --- | --- | --- |
| C[C@]12CC[C@@H]3c4ccc(O)cc4CC[C@H]3[C@@H]1CC[C@@H]2O [Estradiol, 17β-estradiol] | 135.78 ± 2.83 | 92.27 ± 2.04 | 143.39 ± 10.46 |  |
| C[C@]12CC[C@@H]3c4ccc(O)cc4C[C@@H](CCCCCCCCC[S+]([O-])CCCC(F)(F)C(F)(F)F)[C@H]3[C@@H]1CC[C@@H]2O (stereo partly shown) [ICI 182,780] |  |  |  | 86.55 ± 1.95 |
